Values after ≈ are worked out from the molar mass of the structure shown. Ends that are not written are not given here.
What was measured:
Escherichia coli 25922 = assay: MIC against E. coli 25922 after incubation of the peptide with mouse serum, gastric juice, small intestinal juice or PBS; assay type: cell-based; conditions: for MIC after incubation with gastric juice (GAJ), 1h: mouse gastric juice (stomach tissue + PBS pH 2.0, w/w 1:1, supernatant) mixed with peptide v/v 1:1, peptide 1.28 mM, MIC = lowest concentration killing >95% of cells; for MIC after incubation with serum, 1h / MIC after incubation with serum, 4h / MIC after incubation with serum, 8h: mouse serum mixed with peptide v/v 4:1, 1.28 mM; for Effect of the serum environment on antimicrobial activity: mouse serum, 1-8 h incubation, read-out MIC vs E. coli 25922; for MIC after incubation with small intestinal juice (SIJ), 1h: mouse small intestine contents + PBS pH 7.0 (w/w 1:9, supernatant) mixed with peptide v/v 1:1, 1.28 mM; for MIC after incubation in PBS2.0, 1h / MIC after incubation in PBS2.0, 4h / MIC after incubation in PBS2.0, 8h: phosphate-buffered saline pH 2.0, 37°C; for MIC after incubation in PBS7.0, 1h / MIC after incubation in PBS7.0, 4h / MIC after incubation in PBS7.0, 8h: phosphate-buffered saline pH 7.0, 37°C
Procedure: FIGURE 2 (a) Schematic diagram of the experimental scheme. Red and green arrows indicate the number of oral administrations and corresponding time points, respectively. (b) The experimental group design. (c) R7I MIC changes after incubation with serum, gastric juice, and small intestine fluid against Escherichia coli 25922. Minimum inhibitory concentrations (MICs, μM) were determined as the lowest peptide concentrations that killed greater than 95% of the bacterial cells. A value >64 indicates no detectable antibacterial activity at 64 μM. GAJ, gastric juice; SIJ, small intestinal juice; PBS2.0 and PBS7.0, phosphate‐buffered saline (pH = 2.0 or pH = 7.0); E. coli, Escherichia coli 25922 TEXT PRINTED IN THE PICTURE: (c) R7I + GAJ + E. coli: 1h: 2; 4h: 2; 8h: 2 | (c) R7I + SIJ + E. coli: 1h: 2; 4h: 4; 8h: 4 | (c) R7I + Serum + E. coli: 1h: 2; 4h: 2; 8h: 2 | (c) Melittin + GAJ + E. coli: 1h: >64; 4h: >64; 8h: >64 | (c) Melittin + SIJ + E. coli: 1h: >64; 4h: >64; 8h: >64 | (c) Melittin + Serum + E. coli: 1h: 4; 4h: 8; 8h: 8 | (c) R7I + PBS2.0 + E. coli: 1h: 2; 4h: 2; 8h: 2 | (c) R7I + PBS7.0 + E. coli: 1h: 2; 4h: 2; 8h: 2 | (c) Melittin + PBS2.0 + E. coli: 1h: 2; 4h: 2; 8h: 2 | (c) Melittin + PBS7.0 + E. coli: 1h: 2; 4h: 2; 8h: 2
The C57BL/6 male mice aged 6 weeks were provided by Liaoning Changsheng Biotechnology Co., Ltd., China and euthanized at 10:00 am. The serum was collected and mixed with R7I (v/v = 4:1) to give a final peptide concentration of 1.28 mM. The stomach (cut in half) and the contents of the entire small intestine of the mice were collected and placed in a sterile eppendorf tube. Sterile PBS was added to gastric tissue (w/w = 1:1, pH = 2.0) and small intestine contents (w/w = 1:9, pH = 7.0), and mixed thoroughly by shaking. The mixture was centrifuged to obtain the supernatant as gastric juice and small intestine juice. R7I was dissolved with the corresponding pH PBS. The prepared gastric and small intestine fluids were then mixed separately with R7I (v/v = 1:1) to give a final peptide concentration of 1.28 mM. Melittin was used here as a control. The peptide mixture was incubated in a 37°C incubator for 1, 4 and 8 h. Finally, the minimum inhibitory concentrations (MICs) test was performed to verify peptide activity with Escherichia coli 25922.[18]

[1] = system: pepsin, trypsin, chymotrypsin, and proteinase K; conditions: in vitro; cited from earlier work
[2] = earlier research; cited from earlier work
Description: Importantly, compared with other anti‐proteolytic peptides containing unnatural amino acids, R7I was completely composed of natural amino acids and had dramatic resistance to a high concentration of protease hyd ...

[3] = system: E. coli ATCC 25922 bacterial enteritis model in mice; assay: Bacterial enteritis model: antioxidant function of the liver; assay type: in vivo, C57BL/6 male mice; conditions: oral R7I (20, 30, 40 mg/kg) or colistin sulfate 20 mg/kg; vs control group; n = 6
Procedure: (§1) The mice were divided into six groups randomly: (1) the control group (E. coli + normal saline); the administration group (E. coli + R7I) is set to three concentration gradients: (2) 20 mg/kg, (3) 30 mg/kg, and (4) 40 mg/kg of body weight; (5) the antibiotic group (E. coli + colistin sulfate), 20 mg/kg of body weight; and (6) the blank group with only normal saline (Figure 2b).
(§2) The blank group was gavaged with 200 μl of saline, and all other groups were gavaged twice with E. coli ATCC 25922 (200 μl) once a day (d1‐2). R7I at different concentrations and colistin sulfate were given twice (12 h intervals) on the d3 and once on d4‐5 by oral administration. Correspondingly, an equal amount of saline was given to the blank and control groups in the same way. On day 6, all mice were euthanized by cervical dislocation under full anesthesia with isoflurane.
Total antioxidant capacity (T‐AOC), superoxide dismutase (SOD), glutathione peroxidase (GSH‐Px), malondialdehyde (MDA), and catalase (CAT) enzyme activities in the liver were determined using commercially available kits (Nanjing Jiancheng Bioengineering Institute, Nanjing, China) according to the manufacturer's instructions.

[4] = system: E. coli ATCC 25922 bacterial enteritis model in mice; assay: Bacterial enteritis model: serum biochemical indices; assay type: in vivo, C57BL/6 male mice; conditions: other doses of R7I (30, 40 mg/kg) and colistin sulfate 20 mg/kg, oral
Procedure: as §1, §2
Serum biochemical indices of alanine aminotransferase (ALT), aspartate aminotransferase (AST), alkaline phosphatase (ALP), total bilirubin (TBIL), cholinesterase (CHE), creatinine (CREA), creatine kinase (CK), urea nitrogen (BUN), lactate dehydrogenase (LDH), total protein (TP), albumin (ALB), and globulin (GLB) were measured by the automatic biochemical analyzer (Roche, Cobus‐Mira‐Plus, Roche Diagnostic System Inc., Basel, Switzerland).

[5] = system: E. coli ATCC 25922 bacterial enteritis model in mice; assay: Bacterial enteritis model: serum D-lactic acid, diamine oxidase, SIgA (ELISA); assay type: in vivo, C57BL/6 male mice; conditions: n = 6
Procedure: C57BL/6 male mice that were 6 weeks old were provided by Liaoning Changsheng Biotechnology Co., Ltd., China. All mice (20.00 ± 2.00 g, 6 weeks old) were randomly divided into 6 groups (n = 12), and they were fed adaptively for 3 days. During the whole experiment, mice can get clean water and a laboratory standard diet ad libitum, under controlled environmental conditions (40%–60% relative humidity, 25 ± 2°C temperature; lighting cycle, 12 h/d). The standard lab diet contained 18% crude protein, 4% crude fat, 5% crude fiber, 8% ash, and 10% moisture.
as §1
Based on the results of the pre‐experiment, we determined the appropriate concentration of the bacteria. The strain E. coli ATCC 25922 frozen at −20°C was incubated overnight in LB medium (37°C, 220r). The bacterial broth was transferred to a new LB medium at a ratio of 1:100 for 3–5 h to reach the logarithmic growth period. The bacterial precipitate was centrifuged and washed three times with saline to adjust the colony count to 2.0 × 10^9 CFU/ml.
as §2
To detect the content of diamine oxidase (DAO), D‐lactic acid, and secretory immunoglobulin A (SlgA) in serum, using mouse ELISA kit instruction (Alphabio, Tianjin, China).

[6] = mouse gastric juice (PBS pH 2.0, w/w 1:1) mixed with peptide v/v 1:1, 1.28 mM, 37°C, 4 h, then MIC vs E. coli 25922
[7] = 37°C, then MIC vs E. coli 25922
[8] = 37°C, 4 h, then MIC vs E. coli 25922
[9] = 37°C, 8 h, then MIC vs E. coli 25922
[10] = mouse small intestine contents + PBS pH 7.0 (w/w 1:9) mixed with peptide v/v 1:1, 1.28 mM, 37°C, 8 h, then MIC vs E. coli 25922
[11] = oral R7I 20, 30, 40 mg/kg or colistin sulfate 20 mg/kg, vs control group, p < 0.05 in most treatment groups, best in 20 mg/kg R7I

## CC[C@H](C)[C@H](NC(=O)CN)C(=O)NCC(=O)N[C@@H](C)C(=O)N[C@H](C(=O)N[C@@H](CC(C)C)C(=O)N[C@@H](CCCCN)C(=O)N[C@H](C(=O)N[C@@H](CC(C)C)C(=O)N[C@H](C(=O)N[C@H](C(=O)NCC(=O)N[C@@H](CC(C)C)C(=O)N1CCC[C@H]1C(=O)N[C@@H](C)C(=O)N[C@@H](CC(C)C)C(=O)N[C@H](C(=O)N[C@@H](CO)C(=O)N[C@@H](Cc1c[nH]c2ccccc12)C(=O)N[C@H](C(=O)N[C@@H](CCCCN)C(=O)N[C@@H](CCCNC(=N)N)C(=O)N[C@@H](CCCCN)C(=O)N[C@@H](CCCNC(=N)N)C(=O)N[C@@H](CCC(N)=O)C(=O)N[C@@H](CCC(N)=O)C(N)=O)[C@@H](C)CC)[C@@H](C)CC)[C@@H](C)O)[C@@H](C)O)C(C)C)C(C)C [Melittin]
Escherichia coli 25922; [6]
  MIC after incubation with gastric juice (GAJ), 4h: > 64 µM
Escherichia coli 25922; mouse gastric juice (PBS pH 2.0, w/w 1:1) mixed with peptide v/v 1:1, 1.28 mM, 37°C, 8 h, then MIC vs E. coli 25922
  MIC after incubation with gastric juice (GAJ), 8h: > 64 µM
Escherichia coli 25922; [7]
  MIC after incubation with gastric juice (GAJ), 1h: > 64 µM
  MIC after incubation with serum, 1h: 4 µM
  MIC after incubation with small intestinal juice (SIJ), 1h: > 64 µM
Escherichia coli 25922; [8]
  MIC after incubation with serum, 4h: 8 µM
Escherichia coli 25922; [9]
  MIC after incubation with serum, 8h: 8 µM
Escherichia coli 25922; 37°C
  Effect of the serum environment on antimicrobial activity: slightly compromised
Escherichia coli 25922; mouse small intestine contents + PBS pH 7.0 (w/w 1:9) mixed with peptide v/v 1:1, 1.28 mM, 37°C, 4 h, then MIC vs E. coli 25922
  MIC after incubation with small intestinal juice (SIJ), 4h: > 64 µM
Escherichia coli 25922; [10]
  MIC after incubation with small intestinal juice (SIJ), 8h: > 64 µM
Escherichia coli 25922; then MIC vs E. coli 25922
  MIC after incubation in PBS2.0, 1h: 2 µM (≈ 5.69 µg/mL)
  MIC after incubation in PBS7.0, 1h: 2 µM (≈ 5.69 µg/mL)
Escherichia coli 25922; 4 h, then MIC vs E. coli 25922
  MIC after incubation in PBS2.0, 4h: 2 µM (≈ 5.69 µg/mL)
  MIC after incubation in PBS7.0, 4h: 2 µM (≈ 5.69 µg/mL)
Escherichia coli 25922; 8 h, then MIC vs E. coli 25922
  MIC after incubation in PBS2.0, 8h: 2 µM (≈ 5.69 µg/mL)
  MIC after incubation in PBS7.0, 8h: 2 µM (≈ 5.69 µg/mL)
Escherichia coli 25922; small intestinal fluid, 1 min, unused data
  Activity after incubation with small intestinal fluid for 1 min: inactivated

## IRPIIRPIIRPIIRPIIRPIIRPIIRPI-NH2 [R7I]
[1]
  Resistance to pepsin, trypsin, chymotrypsin, and proteinase K: excellent resistance
[2]
  Cytotoxicity: low cytotoxicity
Escherichia coli 25922; [6]
  MIC after incubation with gastric juice (GAJ), 4h: 2 µM
Escherichia coli 25922; [7]
  MIC after incubation with gastric juice (GAJ), 1h: 2 µM
  MIC after incubation with serum, 1h: 2 µM
  MIC after incubation with small intestinal juice (SIJ), 1h: 2 µM
Escherichia coli 25922; [8]
  MIC after incubation with serum, 4h: 2 µM
Escherichia coli 25922; [9]
  MIC after incubation with serum, 8h: 2 µM
Escherichia coli 25922; 37°C
  Effect of the serum environment on antimicrobial activity: no negative effect
Escherichia coli 25922; [10]
  MIC after incubation with small intestinal juice (SIJ), 8h: 4 µM
Escherichia coli 25922; then MIC vs E. coli 25922
  MIC after incubation in PBS2.0, 1h: 2 µM
  MIC after incubation in PBS7.0, 1h: 2 µM
Escherichia coli 25922; 4 h, then MIC vs E. coli 25922
  MIC after incubation in PBS2.0, 4h: 2 µM
  MIC after incubation in PBS7.0, 4h: 2 µM
Escherichia coli 25922; 8 h, then MIC vs E. coli 25922
  MIC after incubation in PBS2.0, 8h: 2 µM
  MIC after incubation in PBS7.0, 8h: 2 µM

## colistin sulfate
[3]
  MDA levels in the liver: significantly dropped
[4]
  Serum CREA level: little effect (or even an increasing trend)
  Serum LDH level: little effect (or even an increasing trend)
[4]; p < 0.05
  Serum AST level: decrease
  Serum TBIL level: decrease
[4]; p > 0.05
  Serum ALT level: decrease
[5]; [11]
  Serum D-lactic acid (DLA) level: significantly decreased
  Serum diamine oxidase (DAO) level: significantly decreased
[5]; partial dose concentrations, oral
  Serum secreted immunoglobulin A (SlgA) level vs control group: raise secreted immunoglobulin A (SlgA) levels compared to the control group, without statistical significance

Source: paper PMC10013768, “The efficacy of anti‐proteolytic peptide R7I in intestinal inflammation, function, microbiota, and metabolites by multi‐omics analysis in murine bacterial enteritis” (Bioengineering & Translational Medicine, 2022)
